Assays:
Test in all cases: biochemical
Assay type in all cases: biochemical
382 unique human kinases [1] = target: T1, 382 unique human kinases (Homo sapiens, UniProt Q9Y2K2); settings: SIK3, 10 uM; for remaining activity at 10 µM: read-out: % Enzyme Activity (relative to DMSO controls)
T1 construct: purchased Reaction Biology (HotSpot contract assay)

382 unique human kinases [2] = target: T2, 382 unique human kinases (Homo sapiens, UniProt Q02763, R849W); settings: kinase TIE2 (R849W), compound 10 uM; for remaining activity at 10 µM: read-out: % Enzyme Activity (relative to DMSO controls)
T2 construct: purchased Reaction Biology (HotSpot contract assay)

382 unique human kinases [3] = target: T3, 382 unique human kinases (Homo sapiens, UniProt Q15835); settings: GRK1, 10 uM; for remaining activity at 10 µM: read-out: % Enzyme Activity (relative to DMSO controls)
T3 construct: purchased Reaction Biology (HotSpot contract assay)
T3 sequence (Q15835 1-563): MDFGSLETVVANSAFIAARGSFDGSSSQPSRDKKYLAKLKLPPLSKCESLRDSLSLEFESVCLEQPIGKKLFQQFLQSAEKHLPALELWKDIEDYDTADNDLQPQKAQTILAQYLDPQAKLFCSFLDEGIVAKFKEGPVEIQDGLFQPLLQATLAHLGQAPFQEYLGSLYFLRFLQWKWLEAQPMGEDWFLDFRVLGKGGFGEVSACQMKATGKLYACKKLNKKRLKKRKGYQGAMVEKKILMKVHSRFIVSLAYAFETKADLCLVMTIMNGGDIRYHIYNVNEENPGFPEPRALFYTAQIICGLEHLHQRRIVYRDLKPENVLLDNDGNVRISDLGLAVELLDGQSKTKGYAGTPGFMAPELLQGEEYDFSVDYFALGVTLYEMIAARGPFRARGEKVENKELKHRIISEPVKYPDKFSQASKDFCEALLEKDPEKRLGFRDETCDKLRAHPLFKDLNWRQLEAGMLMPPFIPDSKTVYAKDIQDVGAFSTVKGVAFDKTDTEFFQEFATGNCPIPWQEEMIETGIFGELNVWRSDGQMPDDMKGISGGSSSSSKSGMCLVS

382 unique human kinases [4] = target: T4, 382 unique human kinases (Homo sapiens, UniProt P45985); settings: MKK4, [ATP] 2.5 µM, compound 10 uM; for remaining activity at 10 µM: read-out: % Enzyme Activity (relative to DMSO controls)
T4 construct: purchased Reaction Biology (HotSpot contract assay)
T4 sequence (P45985 1-399): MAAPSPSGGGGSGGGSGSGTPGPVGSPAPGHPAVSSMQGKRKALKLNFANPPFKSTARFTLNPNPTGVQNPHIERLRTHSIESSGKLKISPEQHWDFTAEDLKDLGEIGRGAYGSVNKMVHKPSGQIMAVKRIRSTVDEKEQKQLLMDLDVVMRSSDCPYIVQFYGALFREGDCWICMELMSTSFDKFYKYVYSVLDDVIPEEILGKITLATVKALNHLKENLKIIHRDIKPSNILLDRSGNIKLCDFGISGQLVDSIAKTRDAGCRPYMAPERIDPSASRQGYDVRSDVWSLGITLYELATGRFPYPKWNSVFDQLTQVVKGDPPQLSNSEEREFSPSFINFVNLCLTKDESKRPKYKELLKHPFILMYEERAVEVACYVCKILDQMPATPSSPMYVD

382 unique human kinases [5] = target: T5, 382 unique human kinases (Homo sapiens, UniProt Q9P1W9); settings: PIM2, [ATP] 20 µM, compound 10 uM; for remaining activity at 10 µM: read-out: % Enzyme Activity (relative to DMSO controls)
T5 construct: purchased Reaction Biology (HotSpot contract assay)

382 unique human kinases [6] = target: T6, 382 unique human kinases (Homo sapiens, UniProt Q06187); settings: BTK, [ATP] 50 µM, compound 10 uM; for remaining activity at 10 µM: read-out: % Enzyme Activity (relative to DMSO controls)
T6 construct: purchased Reaction Biology (HotSpot contract assay)

382 unique human kinases [7] = target: T7, 382 unique human kinases (Homo sapiens, UniProt P29323); settings: EPHB2, [ATP] 30 µM, compound 10 uM; for remaining activity at 10 µM: read-out: % Enzyme Activity (relative to DMSO controls)
T7 construct: purchased Reaction Biology (HotSpot contract assay)
T7 sequence (P29323 19-1055): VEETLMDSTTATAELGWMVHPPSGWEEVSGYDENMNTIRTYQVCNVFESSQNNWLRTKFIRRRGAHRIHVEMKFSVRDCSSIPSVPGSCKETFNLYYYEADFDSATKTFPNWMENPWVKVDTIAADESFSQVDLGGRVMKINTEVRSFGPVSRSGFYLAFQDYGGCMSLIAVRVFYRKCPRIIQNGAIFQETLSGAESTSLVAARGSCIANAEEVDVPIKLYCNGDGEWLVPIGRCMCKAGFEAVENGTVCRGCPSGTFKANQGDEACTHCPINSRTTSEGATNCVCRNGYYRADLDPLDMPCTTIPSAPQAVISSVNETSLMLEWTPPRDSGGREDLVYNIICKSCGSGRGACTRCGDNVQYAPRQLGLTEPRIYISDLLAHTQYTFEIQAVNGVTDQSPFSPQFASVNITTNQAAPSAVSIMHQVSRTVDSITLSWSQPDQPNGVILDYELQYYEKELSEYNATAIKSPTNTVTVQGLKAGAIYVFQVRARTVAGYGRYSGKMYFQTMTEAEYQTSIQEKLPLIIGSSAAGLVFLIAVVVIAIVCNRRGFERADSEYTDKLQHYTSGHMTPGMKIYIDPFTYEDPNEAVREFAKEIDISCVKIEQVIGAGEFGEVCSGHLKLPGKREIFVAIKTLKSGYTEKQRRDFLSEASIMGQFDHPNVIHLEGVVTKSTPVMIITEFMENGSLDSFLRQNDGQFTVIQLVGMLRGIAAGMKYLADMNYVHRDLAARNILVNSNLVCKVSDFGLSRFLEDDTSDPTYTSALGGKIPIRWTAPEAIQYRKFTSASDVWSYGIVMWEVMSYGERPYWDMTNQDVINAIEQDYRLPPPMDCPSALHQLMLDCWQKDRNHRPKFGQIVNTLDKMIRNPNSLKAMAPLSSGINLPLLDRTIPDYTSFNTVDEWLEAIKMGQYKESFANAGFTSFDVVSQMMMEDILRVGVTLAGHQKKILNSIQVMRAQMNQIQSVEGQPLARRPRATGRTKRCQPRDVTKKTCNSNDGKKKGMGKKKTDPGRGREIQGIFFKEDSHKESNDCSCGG

T1 sequence (Q9Y2K2 whole entry): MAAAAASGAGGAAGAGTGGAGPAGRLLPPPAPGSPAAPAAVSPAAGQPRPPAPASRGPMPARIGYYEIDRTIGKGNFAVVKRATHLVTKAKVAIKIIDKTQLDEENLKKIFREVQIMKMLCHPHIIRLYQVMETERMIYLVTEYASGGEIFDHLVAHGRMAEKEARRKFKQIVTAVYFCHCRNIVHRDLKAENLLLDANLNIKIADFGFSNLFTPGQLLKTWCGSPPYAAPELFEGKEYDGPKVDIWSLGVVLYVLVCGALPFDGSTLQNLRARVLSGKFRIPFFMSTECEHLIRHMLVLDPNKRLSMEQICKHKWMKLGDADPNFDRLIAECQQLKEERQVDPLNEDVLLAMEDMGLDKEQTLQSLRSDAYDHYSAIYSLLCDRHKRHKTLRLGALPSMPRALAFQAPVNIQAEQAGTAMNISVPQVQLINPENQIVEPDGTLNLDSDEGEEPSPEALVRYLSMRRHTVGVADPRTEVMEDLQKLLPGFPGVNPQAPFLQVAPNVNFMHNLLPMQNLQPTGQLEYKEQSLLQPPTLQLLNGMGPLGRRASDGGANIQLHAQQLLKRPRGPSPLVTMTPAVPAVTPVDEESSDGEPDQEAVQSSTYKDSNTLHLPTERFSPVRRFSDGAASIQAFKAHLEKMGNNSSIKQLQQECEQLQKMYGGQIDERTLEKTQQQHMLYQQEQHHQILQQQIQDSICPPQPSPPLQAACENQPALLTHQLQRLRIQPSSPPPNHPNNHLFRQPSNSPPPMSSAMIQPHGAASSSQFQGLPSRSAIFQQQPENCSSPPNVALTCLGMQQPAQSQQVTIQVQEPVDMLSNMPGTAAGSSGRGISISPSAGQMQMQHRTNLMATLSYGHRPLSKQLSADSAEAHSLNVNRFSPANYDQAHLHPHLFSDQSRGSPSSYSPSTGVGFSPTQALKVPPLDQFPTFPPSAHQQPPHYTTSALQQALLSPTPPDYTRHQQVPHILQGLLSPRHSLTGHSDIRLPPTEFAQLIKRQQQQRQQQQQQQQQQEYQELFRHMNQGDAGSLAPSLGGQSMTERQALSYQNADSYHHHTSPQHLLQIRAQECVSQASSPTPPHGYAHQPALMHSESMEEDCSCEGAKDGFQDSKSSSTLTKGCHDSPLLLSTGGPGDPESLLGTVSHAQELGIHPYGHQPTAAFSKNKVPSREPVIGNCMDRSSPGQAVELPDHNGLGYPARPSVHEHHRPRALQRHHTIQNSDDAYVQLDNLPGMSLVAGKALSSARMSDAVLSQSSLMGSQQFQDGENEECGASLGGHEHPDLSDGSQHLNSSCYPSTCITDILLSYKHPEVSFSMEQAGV
T6 sequence (Q06187 whole entry): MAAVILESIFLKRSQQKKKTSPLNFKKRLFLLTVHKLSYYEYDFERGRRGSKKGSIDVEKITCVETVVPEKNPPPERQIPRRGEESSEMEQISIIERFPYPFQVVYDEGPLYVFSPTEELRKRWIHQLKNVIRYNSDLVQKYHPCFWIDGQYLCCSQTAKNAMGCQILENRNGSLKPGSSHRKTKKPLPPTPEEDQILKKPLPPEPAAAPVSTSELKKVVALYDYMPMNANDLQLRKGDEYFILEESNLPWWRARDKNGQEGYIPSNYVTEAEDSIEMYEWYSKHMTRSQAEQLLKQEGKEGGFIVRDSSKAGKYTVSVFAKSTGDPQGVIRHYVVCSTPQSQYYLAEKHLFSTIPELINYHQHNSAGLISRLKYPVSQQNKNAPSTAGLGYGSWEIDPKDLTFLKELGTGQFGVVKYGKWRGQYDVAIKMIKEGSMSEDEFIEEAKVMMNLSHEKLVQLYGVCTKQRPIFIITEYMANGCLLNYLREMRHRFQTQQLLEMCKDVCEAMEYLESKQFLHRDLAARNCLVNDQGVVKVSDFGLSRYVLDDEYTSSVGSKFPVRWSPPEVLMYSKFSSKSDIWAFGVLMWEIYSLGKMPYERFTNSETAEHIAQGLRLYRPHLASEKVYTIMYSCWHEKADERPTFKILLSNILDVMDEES
T5 sequence (Q9P1W9 whole entry): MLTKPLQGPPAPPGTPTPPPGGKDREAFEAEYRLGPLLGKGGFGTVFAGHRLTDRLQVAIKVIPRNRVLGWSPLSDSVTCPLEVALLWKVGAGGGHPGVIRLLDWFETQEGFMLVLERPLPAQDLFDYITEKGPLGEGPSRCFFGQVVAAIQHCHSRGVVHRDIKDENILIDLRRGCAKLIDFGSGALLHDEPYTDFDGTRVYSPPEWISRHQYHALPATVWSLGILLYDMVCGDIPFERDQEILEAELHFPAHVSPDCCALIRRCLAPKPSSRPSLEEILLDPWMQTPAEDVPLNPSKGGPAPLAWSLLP
T2 sequence (Q02763 23-1124 R849W): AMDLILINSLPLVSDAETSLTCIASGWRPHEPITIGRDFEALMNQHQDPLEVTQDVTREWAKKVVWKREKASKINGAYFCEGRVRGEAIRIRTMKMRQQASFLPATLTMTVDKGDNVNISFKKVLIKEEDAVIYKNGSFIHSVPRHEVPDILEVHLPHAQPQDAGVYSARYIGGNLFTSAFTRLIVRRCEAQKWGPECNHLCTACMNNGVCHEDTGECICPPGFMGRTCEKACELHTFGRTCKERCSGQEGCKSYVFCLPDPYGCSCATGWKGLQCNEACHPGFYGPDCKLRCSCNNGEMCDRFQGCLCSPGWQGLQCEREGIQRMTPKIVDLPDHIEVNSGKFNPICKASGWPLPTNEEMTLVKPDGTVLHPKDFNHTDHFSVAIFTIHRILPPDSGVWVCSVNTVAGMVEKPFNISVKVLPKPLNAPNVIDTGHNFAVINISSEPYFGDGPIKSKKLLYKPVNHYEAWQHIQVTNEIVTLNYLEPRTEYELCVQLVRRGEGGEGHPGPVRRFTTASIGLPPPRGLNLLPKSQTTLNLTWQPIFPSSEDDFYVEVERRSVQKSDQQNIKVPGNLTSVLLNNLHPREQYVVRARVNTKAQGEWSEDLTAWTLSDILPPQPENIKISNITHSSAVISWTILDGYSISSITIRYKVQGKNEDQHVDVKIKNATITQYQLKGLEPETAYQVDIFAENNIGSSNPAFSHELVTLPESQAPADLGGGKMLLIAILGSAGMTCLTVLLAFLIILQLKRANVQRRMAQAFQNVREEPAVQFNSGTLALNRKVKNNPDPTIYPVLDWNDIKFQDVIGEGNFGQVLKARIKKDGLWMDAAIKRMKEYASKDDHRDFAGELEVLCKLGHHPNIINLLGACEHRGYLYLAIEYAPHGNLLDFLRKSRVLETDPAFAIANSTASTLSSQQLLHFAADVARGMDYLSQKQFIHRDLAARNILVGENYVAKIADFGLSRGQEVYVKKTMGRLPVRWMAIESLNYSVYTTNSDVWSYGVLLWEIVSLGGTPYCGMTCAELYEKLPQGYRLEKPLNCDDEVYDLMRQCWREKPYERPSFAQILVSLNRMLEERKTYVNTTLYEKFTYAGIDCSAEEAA

CC(C)c1cc(-c2n[nH]c(=O)n2-c2ccc3c(ccn3C)c2)c(O)cc1O [Ganetespib (STA9090)]
remaining activity at 10 µM (382 unique human kinases [1]): 78.3%
remaining activity at 10 µM (382 unique human kinases [2]): 83.1%
remaining activity at 10 µM (382 unique human kinases [3]): 76%

CCNC(=O)c1noc(-c2cc(C(C)C)c(O)cc2O)c1-c1ccc(CN2CCOCC2)cc1 [Luminespib]
% Enzyme Activity (relative to DMSO controls) (382 unique human kinases [4]): 93.71%
remaining activity at 10 µM (382 unique human kinases [4]): 98.4%
% Enzyme Activity (relative to DMSO controls) (382 unique human kinases [5]): 103.60%
remaining activity at 10 µM (382 unique human kinases [5]): 106%
% Enzyme Activity (relative to DMSO controls) (382 unique human kinases [6]): 74.40%
remaining activity at 10 µM (382 unique human kinases [6]): 74.9%
% Enzyme Activity (relative to DMSO controls) (382 unique human kinases [7]): 61.81%
remaining activity at 10 µM (382 unique human kinases [7]): 63.2%

CCNC(=O)c1noc(-c2cc(C(C)C)c(O)cc2O)c1-c1ccc(CN2CCOCC2)cc1 [Luminespib (AUY-922)]
% Enzyme Activity (relative to DMSO controls) (382 unique human kinases [1]): 99.21%
remaining activity at 10 µM (382 unique human kinases [1]): 99.6%
% Enzyme Activity (relative to DMSO controls) (382 unique human kinases [2]): 89.68%
remaining activity at 10 µM (382 unique human kinases [2]): 90.9%
% Enzyme Activity (relative to DMSO controls) (382 unique human kinases [3]): 85.44%
remaining activity at 10 µM (382 unique human kinases [3]): 85.9%

CC(C)c1cc(-c2n[nH]c(=O)n2-c2ccc3c(ccn3C)c2)c(O)cc1O [Ganetespib]
remaining activity at 10 µM (382 unique human kinases [4]): 55.2%
remaining activity at 10 µM (382 unique human kinases [5]): 28.8%
remaining activity at 10 µM (382 unique human kinases [6]): 56%
remaining activity at 10 µM (382 unique human kinases [7]): 45.3%

Source: paper PMC8550792, “Evolution of kinase polypharmacology across HSP90 drug discovery” (Cell Chemical Biology, 2021)
